This note sets out measurements from article PMC11818871, “Identification of Fungal Metabolite Gliotoxin as a Potent Inhibitor Against Bacterial O-Acetylserine Sulfhydrylase CysK and CysM” (International Journal of Molecular Sciences, 2025).

pIC50: −log10 of the molar value.

For test [1], the target named is CysM (O-acetylserine sulfhydrylase) (Salmonella enterica, UniProt P29848). Kind of test: recombinant enzyme, H2S consumption by HSip-1 fluorescence; confirmed by LC-MS/MS of cysteine production. In kind it is biochemical.
Test [2] concerns the target CysK (O-acetylserine sulfhydrylase) (Salmonella enterica, UniProt P0A1E3). Described as above. In kind it is biochemical.

Sequence of CysM (O-acetylserine sulfhydrylase) (P29848 whole entry): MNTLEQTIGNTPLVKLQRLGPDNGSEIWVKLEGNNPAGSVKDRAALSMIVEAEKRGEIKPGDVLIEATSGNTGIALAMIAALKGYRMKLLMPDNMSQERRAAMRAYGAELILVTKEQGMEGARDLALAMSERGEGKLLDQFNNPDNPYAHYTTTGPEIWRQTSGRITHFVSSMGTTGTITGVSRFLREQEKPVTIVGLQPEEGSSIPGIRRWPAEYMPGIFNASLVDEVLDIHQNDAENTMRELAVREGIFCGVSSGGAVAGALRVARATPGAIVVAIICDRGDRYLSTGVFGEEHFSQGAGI
Sequence of CysK (O-acetylserine sulfhydrylase) (P0A1E3 2-323): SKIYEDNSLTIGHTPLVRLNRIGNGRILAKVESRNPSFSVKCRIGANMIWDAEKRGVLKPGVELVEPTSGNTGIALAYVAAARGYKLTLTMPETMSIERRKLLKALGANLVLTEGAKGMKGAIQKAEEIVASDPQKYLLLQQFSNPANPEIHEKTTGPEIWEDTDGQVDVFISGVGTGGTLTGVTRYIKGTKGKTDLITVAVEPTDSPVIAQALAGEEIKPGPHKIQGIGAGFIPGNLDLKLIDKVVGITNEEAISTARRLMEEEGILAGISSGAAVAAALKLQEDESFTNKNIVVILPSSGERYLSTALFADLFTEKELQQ

As a reminder, the pIC50 is the IC50 on a negative log10 scale, so that one unit is a factor of ten. `CN1C(=O)[C@]23CC4=CC=C[C@H](O)[C@H]4N2C(=O)[C@@]1(CO)SS3` [compound 1, gliotoxin]: the pIC50 in test [1] and in test [2] was around 5.52 in each case.
